Usually Ki stands for a measure of affinity in units of concentration, obtained from inhibition or displacement. A lower Ki goes with a stronger hold on the target.

The nature of this assay: Inhibition of glycogen phosphorylase b (unknown origin). On the set-up: species or system Homo sapiens.
Turning to `NC[C@@H]1O[C@H](CO)[C@@H](O)[C@H](O)[C@H]1O`, affinity was put at a Ki of 16800 µM.

As for `NCC[C@@H]1O[C@H](CO)[C@@H](O)[C@H](O)[C@H]1O`, the Ki was determined as 4500 µM.

On to `NC[C@H]1O[C@H](CO)[C@@H](O)[C@H](O)[C@H]1O`, for which the affinity corresponds to a Ki of 34500 µM.

`O=C(CBr)N[C@@H]1O[C@H](CO)[C@@H](O)[C@H](O)[C@H]1O` returned a Ki of 44 µM.

As for `CS(=O)(=O)OC[C@]1(O)O[C@H](CO)[C@@H](O)[C@H](O)[C@H]1O`, the Ki stood at 3700 µM.

Consider `[N-]=[N+]=NC[C@]1(O)O[C@H](CO)[C@@H](O)[C@H](O)[C@H]1O`, for which the Ki is 7400 µM.

Regarding `CO[C@@H]1O[C@H](CO)[C@@H](O)[C@H](O)[C@H]1O`, the affinity, expressed as Ki, was 24700 µM.

Turning to `O=C(NCC(F)(F)F)[C@@H]1O[C@H](CO)[C@@H](O)[C@H](O)[C@H]1O`, the Ki is 8100 µM. Against the preceding molecule, the Ki is about 3-fold lower.

Turning to `O=C(O)[C@H]1O[C@H](CO)[C@@H](O)[C@H](O)[C@H]1O`, the affinity, expressed as Ki, was 15200 µM.

`OC[C@H]1O[C@@H](S)[C@H](O)[C@@H](O)[C@@H]1O` displayed a Ki of 1000 µM. Against the preceding molecule, the Ki is about 15-fold lower.

Molecule `COC(=O)N[C@]1(C(N)=O)O[C@H](CO)[C@@H](O)[C@H](O)[C@H]1O` showed a Ki of 16 µM. This Ki lies about 62-fold lower than the previous one.

In turn, `N#CC[C@@H]1O[C@H](CO)[C@@H](O)[C@H](O)[C@H]1O` had a Ki of 9000 µM.

With `CS(=O)(=O)OC[C@@H]1O[C@H](CO)[C@@H](O)[C@H](O)[C@H]1O`, the Ki worked out at 4800 µM. Against the preceding molecule, the Ki is about 1.9-fold lower.

With `CNC(=O)[C@@H]1O[C@H](CO)[C@@H](O)[C@H](O)[C@H]1O`, the affinity corresponds to a Ki of 160 µM.

Molecule `COC(=O)[C@@H]1O[C@H](CO)[C@@H](O)[C@H](O)[C@H]1O` returned a Ki of 2800 µM.

Molecule `NNC(=O)[C@H]1O[C@H](CO)[C@@H](O)[C@H](O)[C@H]1O` displayed a Ki of 3000 µM.

The molecule `NC(=O)[C@@H]1O[C@H](CO)[C@@H](O)[C@H](O)[C@H]1O` had a Ki of 440 µM.

`OC[C@H]1S[C@H](O)[C@H](O)[C@@H](O)[C@@H]1O`: the Ki was 2000 µM.

`O=C(NCCO)[C@H]1O[C@H](CO)[C@@H](O)[C@H](O)[C@H]1O` returned an inhibition constant (Ki) of 16900 µM.

In the case of `COC(=O)N[C@@H]1O[C@H](CO)[C@@H](O)[C@H](O)[C@H]1O`, the Ki was 85 µM. Compared with the last molecule, the Ki is about 200-fold lower.

On to `O=C(Nc1ccc(O)cc1)[C@H]1O[C@H](CO)[C@@H](O)[C@H](O)[C@H]1O`, for which the Ki was 5600 µM.

Molecule `OC[C@H]1O[C@@](O)(CO)[C@H](O)[C@@H](O)[C@@H]1O` gave a Ki of 15800 µM.

For `NCC(=O)N[C@@H]1O[C@H](CO)[C@@H](O)[C@H](O)[C@H]1O`, affinity was put at a Ki of 370 µM. Compared with the last molecule, the Ki is about 43-fold lower.

`C[C@H]1O[C@H](CO)[C@@H](O)[C@H](O)[C@H]1O` had a Ki of 53100 µM.

In turn, `COC(=O)[C@H]1O[C@H](CO)[C@@H](O)[C@H](O)[C@H]1O` came in with a Ki of 24200 µM.

`NC(=O)[C@H]1O[C@H](CO)[C@@H](O)[C@H](O)[C@H]1O` displayed a Ki of 370 µM. Against the preceding molecule, the Ki is about 65-fold lower.

For the molecule `N#CC[C@]1(O)O[C@H](CO)[C@@H](O)[C@H](O)[C@H]1O`, the Ki is 7600 µM.

`O=C(Nc1ccc(O)cc1)[C@@H]1O[C@H](CO)[C@@H](O)[C@H](O)[C@H]1O`: affinity was put at a Ki of 4400 µM.

Molecule `O=C(NCCO)[C@@H]1O[C@H](CO)[C@@H](O)[C@H](O)[C@H]1O` gave a Ki of 2600 µM.

In turn, `NN1C(=O)NC2(O[C@H](CO)[C@@H](O)[C@H](O)[C@H]2O)C1=O` (stereo partly specified) showed a Ki of 146 µM.

In turn, `O=C1CNC(=O)C2(N1)O[C@H](CO)[C@@H](O)[C@H](O)[C@H]2O` (stereo partly specified) yielded a Ki of 59.7 µM.

As to `NNC(=O)[C@@H]1O[C@H](CO)[C@@H](O)[C@H](O)[C@H]1O`, the Ki was 400 µM.

`O=C(Nc1ccccc1)[C@@H]1O[C@H](CO)[C@@H](O)[C@H](O)[C@H]1O` returned a Ki of 5400 µM.

In the case of `O=C(Nc1ccccc1)[C@H]1O[C@H](CO)[C@@H](O)[C@H](O)[C@H]1O`, the Ki was 12600 µM.

With `O=C(NC1CC1)[C@@H]1O[C@H](CO)[C@@H](O)[C@H](O)[C@H]1O`, the affinity, expressed as Ki, was 1300 µM.

`CNC(=O)[C@H]1O[C@H](CO)[C@@H](O)[C@H](O)[C@H]1O` yielded a Ki of 36700 µM.

The molecule `O=C(NCc1ccc(F)cc1F)[C@H]1O[C@H](CO)[C@@H](O)[C@H](O)[C@H]1O` came in with a Ki of 27200 µM.

For the molecule `OC[C@H]1O[C@@H](Oc2cc3ccccc3[nH]2)[C@H](O)[C@@H](O)[C@@H]1O`, the affinity, expressed as Ki, was 2600 µM.

The molecule `OC[C@H]1O[C@H](CO)[C@@H](O)[C@H](O)[C@H]1O` displayed a Ki of 1500 µM.

In the case of `[N-]=[N+]=NC[C@H]1O[C@H](CO)[C@@H](O)[C@H](O)[C@H]1O`, the Ki was 22400 µM.

As for `O=C(CCl)NC1O[C@H](CO)[C@@H](O)[C@H](O)[C@H]1O` (single isomer, unassigned), the Ki amounted to 45 µM.

In turn, `NC(=O)CSC1O[C@H](CO)[C@@H](O)[C@H](O)[C@H]1O` (single isomer, unassigned) returned a Ki of 21100 µM.

Regarding `O=C(CSC1O[C@H](CO)[C@@H](O)[C@H](O)[C@H]1O)Nc1ccc(F)cc1F` (single isomer, unassigned), the Ki was 18900 µM. The Ki values of the last two molecules are within 1.5-fold of each other.

Consider `O=C(CSC1O[C@H](CO)[C@@H](O)[C@H](O)[C@H]1O)Nc1ccccc1` (single isomer, unassigned), for which the Ki is 3600 µM. This Ki lies about 5.2-fold lower than the previous one.

On to `CNNC(=O)C1O[C@H](CO)[C@@H](O)[C@H](O)[C@H]1O` (single isomer, unassigned), for which the Ki stood at 1800 µM.

Molecule `NC(=O)NC1O[C@H](CO)[C@@H](O)[C@H](O)[C@H]1O` (single isomer, unassigned) gave a Ki of 140 µM.

For `CCCC(=O)NC1O[C@H](CO)[C@@H](O)[C@H](O)[C@H]1O` (single isomer, unassigned), the Ki is 94 µM. This Ki and that of the molecule before are within 1.5-fold of each other.

For the molecule `O=C(NC1O[C@H](CO)[C@@H](O)[C@H](O)[C@H]1O)c1ccccc1` (single isomer, unassigned), affinity was put at a Ki of 81 µM.

In turn, `CC(=O)NCC(=O)NC1O[C@H](CO)[C@@H](O)[C@H](O)[C@H]1O` (single isomer, unassigned) had a Ki of 990 µM.

`CCC(=O)NC1O[C@H](CO)[C@@H](O)[C@H](O)[C@H]1O` (single isomer, unassigned): the Ki stood at 39 µM.

On to `CC(=O)NC1O[C@H](CO)[C@@H](O)[C@H](O)[C@H]1O` (single isomer, unassigned), for which the affinity corresponds to a Ki of 32 µM.

For the origin of these results see ChEMBL document CHEMBL2424531, “Molecular docking- and genetic algorithm-based approaches to produce robust 3D-QSAR models” (Med Chem Res, 2013).
